In article doi:10.1101/2025.07.20.665728 (bioRxiv, 2025):
pIC50: −log10 of the molar value. “And” between values parts separate entries of the source, which are not always exact repeats. Equal entries are not always repeated. Where two headings read alike, the source gives them in different places.

Columns and labels:
hMR1 protein = target: T1, hMR1 protein (Homo sapiens, UniProt Q95460); assay: Fluorescence polarization (FP)-based cell-free MR1 binding assay (competition with JYM20)
T1 construct: plasmids encoding for the extracellular domains of MR1, β2m, and the AF-7 TCRα and TCRβ chains; made in house

soluble WT MR1 = assay: Fluorescence-based thermal shift assay of MR1-ligand complexes; format: binding, human; conditions: MR1 refolded with the ligand, Sypro Orange, three independent experiments
C1R.MR1 cells [1] = assay: Cell surface MR1 quantification by flow cytometry, C1R.MR1; format: cell-based; conditions: for MR1 cell surface expression: 1–200 μM
Experimental: Next, we investigated whether these RF catabolites can impact MR1 cell surface expression in both MR1-transduced B cell lymphoblastoid (C1R.MR1) and monocytic (THP-1.MR1) cell lines (Fig. 2). Here, the cells were pulsed with 1–200 μM of RF or the RF catabolites, and the cell surface levels of MR1 were quantified by flow cytometry ([Awad et al., 2020a]; [Keller et al., 2017]). Cell viability was unaffected, even at highest concentrations of the catabolites, as depicted in Fig. S2A. […] No impact on the MR1 surface level was observed when the parental C1R cells were incubated with these RF catabolites, probably due to the low basal surface MR1 level whose further reduction becomes undetectable by the anti-MR1 antibody (Fig. S2B). The MR1 downregulation seen in C1R.MR1 cells was specific to MR1 as the level of HLA-A*02:01 was not affected after pulsing C1R-A2 with the ligands (Fig. S2C). […] This MR1 downregulation varied between cell types, with a higher extent observed in THP-1.MR1 than C1R.MR1, and was seen after staining with both two conformational anti-MR1 8F2F9 and 26.5 antibodies (clones 8F2F9 and 26.5; Fig. 2G).
(§1) The level of MR1 expressed on the cell surface was measured after the exposure to the investigated ligands as previously described ([Awad et al., 2020a]; [Wang et al., 2022a]). C1R antigen presenting B lymphocytes overexpressing MR1*01 (C1R.MR1), MR1^K43A mutant (C1R.MR1^K43A), MR1^R9H mutant (C1R.MR1^R9H) or HLA-A*02:01 (C1R-A2), in addition to the monocytic THP-1-MR1 cells, were used in this study. 2 x 10^5 cells were incubated with RF catabolites for 3 or 16 h at 37° C and 5% CO2 in 200 μl folate-free RPMI 1640 medium from Gibco (Cat. No. 11875-093) fortified with 10% fetal bovine serum (FBS), sodium pyruvate (1 mmol/L), Hepes buffer (15 mmol/L), pH 7.2 to 7.5, 2% penicillin (100 U/ml), streptomycin ([…]), glutamax (2 mmol/L), nonessential amino acids (0.1 mmol/L) (all from ThermoFisher, Life Technologies), and 2-mercaptoethanol ([…], Sigma) (RF-10). After incubation, the cells were first stained with Zombie Aqua Fixable Viability Kit from BioLegend (Cat. No. 423102) and then incubated with biotinylated 8F2F9 αMR1 antibody for 30 minutes on ice. The unbound antibody was then washed off with 2% fetal bovine serum/PBS. The cells were finally incubated with PE-conjugated streptavidin (BioLegend, 30 μg/ml) and then washed with 2% fetal bovine serum/PBS. The PE fluorescence intensity reflects the surface MR1 level. The data was acquired with an LSRFortessa X-20 (BD Biosciences) and Diva software (BD Biosciences) and analyzed using FlowJo software (BD Biosciences).

C1R.MR1^K43A cells = assay: Cell surface MR1 K43A quantification, C1R.MR1^K43A; format: cell-based
Source text: We then tested the effect of the RF catabolites on the expression of two mutant versions of MR1 termed MR1^R9H ([Howson et al., 2020]) and MR1^K43A ([Reantragoon et al., 2013]). First, we tested the MR1^R9H mutant ([Howson et al., 2020]) which represents a rare, natural human polymorph. […] When C1R. […] Next, we tested sought to understand how the previously characterised Lys43A mutation affects ligand binding. […] While this is in line with the ability of these ligands to bind MR1, the reason for MR1^K43A cell surface accumulation is less clear. The most likely explanation is that these ligands bind ER-resident MR1^K43A, in line with our data using wild-type MR1; however, because the K43A mutation results in spontaneous MR1 surface egress, the presence of these stabilising ligands promotes enhanced trafficking and/or retention at the cell surface. We cannot rule out however that the ligands may also bind directly to surface MR1^K43A and slow down the recycling from cell surface.
as §1
Figure S2. Responses of different APCs to RF catabolites. […] C1R cells expressing (b) wild-type level of MR1*01, or overexpressing (c) HLA-A*02:01 or (d) MR1.K43A mutant were incubated for the indicated periods with titrated quantities of ligand followed by flow cytometry. The C1R and C1R.A2 cells were stained with biotinylated 8F2F9 and W6/32, respectively; followed by PE-labelled streptavidin. In all experiments, the MR1 and HLA-A*02:01 surface expression are depicted as a fold change from basal surface expression upon incubation with the vehicle (1 mM NaOH). Each column represents the average of at least three independent experiments performed in duplicate with standard error (SEM) represented by error bars. One-way ANOVA statistical analysis was performed for all samples followed by Dunnett multiple comparison test using NaOH as a control (ns; not significant, * p <0.05, **p < 0.01, ***p < 0.001, ****p < 0.0001).

C1R.MR1 cells [2] = assay: Competition with Ac-6-FP/5-OP-RU-induced MR1 upregulation, C1R.MR1; format: cell-based; conditions: for reduction of Ac-6-FP response: 200 μM (highest concentration), overnight, cell line not given
[3] = system: SKW-3 cells expressing MBV28 (TRAV1-2/TRBV28) TCR; assay: MAIT cell activation assay, SKW-3 MBV28 TCR co-cultured with C1R.MR1; format: cell-based; conditions: for 5-OP-RU-induced activation (CD69): SKW-3 MBV28, in presence of 1 nM 5-OP-RU
Experimental: Next, we explored whether RF catabolites could activate SKW-3 cells expressing two different MAIT TCRs. Distinct responses of T cells expressing TCRs with varying TRBV chain usage reinforces the role of Vβ in modulating MAIT responses to various ligands ([Chancellor et al., 2023]; [Gherardin et al., 2016]; [Seneviratna et al., 2022]).The surface expression of CD69 was measured as a marker for activation of cells expressing the AF-7 (TRAV1-2/TRBV6-1) or MBV28 (TRAV1-2/TRBV28) TCRs after co-culture with C1R.MR1 cells and the ligands.
C1R.MR1 cells (1 x 10^5) were initially stained with CTV for 15 minutes and then incubated with RF catabolites for 20 h. […] Cells were subsequently stained with PE-Cy7-conjugated anti-CD69 (BD; 1:100) and PE-labelled anti-MR1 (26.5 clone; BD; 1:100), before analysis on LSRFortessa (BD Biosciences) flow cytometer. Activation of SKW-3-MAIT cells was reflected by the cell-surface CD69 expression.

[4] = competition with 10 nM JYM20 for 100 nM empty hMR1, 37°C, read-out: IC50

T1 sequence (Q95460 23-302 limits assumed): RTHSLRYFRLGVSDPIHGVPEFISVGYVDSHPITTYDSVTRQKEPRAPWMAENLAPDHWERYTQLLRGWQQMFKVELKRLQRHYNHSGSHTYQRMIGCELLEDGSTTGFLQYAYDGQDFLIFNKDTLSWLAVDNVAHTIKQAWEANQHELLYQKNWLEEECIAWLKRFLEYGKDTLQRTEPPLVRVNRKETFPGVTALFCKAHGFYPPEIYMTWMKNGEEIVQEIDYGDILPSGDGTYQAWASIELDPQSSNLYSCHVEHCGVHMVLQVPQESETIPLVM
T1 sequence (P61769 21-119 partner): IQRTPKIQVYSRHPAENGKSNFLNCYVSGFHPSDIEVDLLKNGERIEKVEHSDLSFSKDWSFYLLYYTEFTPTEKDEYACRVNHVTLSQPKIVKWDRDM

| Compound | pIC50 (hMR1 protein; [4]) | Tm50 (half maximum melting temperature), Mean ± SD (soluble WT MR1; listed as MR1-alloxazine) | MR1 cell surface expression (C1R.MR1 cells [1]; C1R.MR1, 3 h) | MR1^K43A at the cell surface (C1R.MR1^K43A cells; 3 h) | reduction of Ac-6-FP response (C1R.MR1 cells [2]; then 10 μM Ac-6-FP 3 h) | 5-OP-RU-induced activation (CD69) [3] | Tm50 (half maximum melting temperature), Mean ± SD (soluble WT MR1; listed as MR1-lumichrome) | rank as down-regulator of MR1 cell surface expression (C1R.MR1 cells [1]; overall, C1R.MR1 and THP-1.MR1) | MR1^K43A at the cell surface (C1R.MR1^K43A cells; 16 h) | CD69 surface expression (activation) ([3]; SKW-3 MBV28, ligand alone) | MR1 expression on C1R.MR1 in co-culture ([3]; SKW-3 MBV28 co-culture with 5-OP-RU) | pIC50 (hMR1 protein; IC50, competition with 10 nM JYM20 for 100 nM empty hMR1, 37°C) | Tm50 (half maximum melting temperature), Mean ± SD (soluble WT MR1; listed as MR1-lumiflavin) | MR1 cell surface expression (C1R.MR1 cells [1]; C1R.MR1, 16 h) | effect on Ac-6-FP-induced cell surface upregulation of MR1 (C1R.MR1 cells [2]; C1R.MR1, 1–200 μM overnight, then 10 μM Ac-6-FP 3 h) | effect on 5-OP-RU-induced cell surface upregulation of MR1 (C1R.MR1 cells [2]; C1R.MR1, 1–200 μM overnight, then 5-OP-RU 3 h) |
| --- | --- | --- | --- | --- | --- | --- | --- | --- | --- | --- | --- | --- | --- | --- | --- | --- |
| O=c1nc2[nH]c3ccccc3nc-2c(=O)[nH]1 [Alloxazine, alloxazine] | 4.87 | 49.9–52.0 °C | reduced MR1 cell surface | increased | more than 80% | could interfere with the 5-OP-RU-induced activation of MBV28 in a dose-dependent manner |  |  |  |  |  |  |  |  |  |  |
| Cc1cc2nc3[nH]c(=O)[nH]c(=O)c3nc2cc1C [Lumichrome, 7,8-dimethylalloxazine] | 4.90 |  | reduced MR1 cell surface | increased | more than 80% | enhanced the 5-OP-RU-induced CD69 expression | 49.9–52.0 °C | most potent down-regulator | MR1 upregulation continues | minor reductions in CD69 | dose-dependent reduction in MR1 expression |  |  |  |  |  |
| Cc1cc2nc3c(=O)[nH]c(=O)nc-3n(C)c2cc1C [Lumiflavin] |  |  |  | increased | more than 80% |  |  |  |  |  |  | 4.64 | 49.9–52.0 °C |  |  |  |
| Cc1cc2nc3c(=O)[nH]c(=O)nc-3n(C[C@H](O)[C@H](O)[C@H](O)CO)c2cc1C [RF, Riboflavin] | ~3.74 and 3.74 |  | did not alter MR1 expression from the baseline |  |  | could not compete with 5-OP-RU |  |  | MR1 upregulation continues |  |  |  |  | modestly upregulated MR1 | did not modulate | did not modulate |
